Data from patent US20160368943A1, “SUBSTITUTED PURINE COMPOUNDS” (EPIZYME, INC., priority 2013, published 2016).
Read-outs that look alike come from different tables or passages of the source.

Legend:
[1] = Plasma protein binding by equilibrium dialysis, dog; type: in vitro ADME; conditions: male, beagle, pH 7.4, read-out: Plasma free fraction
Method: (§1) Plasma protein binding was assessed by equilibrium dialysis, utilizing the HT-dialysis cell format with a cellulose semi permeable membrane (molecular weight cut off of 5000 Da). Plasma was warmed to 37° C. and adjusted to pH 7.4 before use. Male Sprague-Dawley rat, male Beagle dog, male CD-1 mouse and mixed sex human plasma was used for the studies. A 5 μM test compound solution was prepared in isotonic phosphate buffer and rat, dog, mouse and human plasma (final DMSO concentration of 0.5%). The plasma-containing solution was introduced to one side of the membrane, and the plasma-free on the other. Incubations were performed for 2-16 hours in duplicate in order to allow the compound to reach equilibrium. Haloperidol was included as the control compound for each species. At the end of the equilibration time the cells were emptied. Following protein precipitation, the samples were centrifuged and analyzed by LC-MS/MS. The samples from the protein containing compartment were quantified using calibration standards prepared in plasma and the protein free compartments were quantified using calibration standards prepared in dialysis buffer.

[2] = Pharmacokinetic study in dog; type: in vivo, Beagle dog; conditions: 1 mg/kg
Method: IV doses were administered by a single intravenous infusion over 1 minute into the cephalic vein in a 10% ethanol and 90% saline vehicle. At designated time points (predose, 0.083, 0.25, 0.5, 1, 2, 4, 8 and 24 h p.d.), the animals were restrained manually, and approximately 0.5 mL blood per time point was collected from non-injected cephalic vein into pre-cold EDTA-K2 tubes. Blood samples were put on wet ice and centrifuged at 4° C. to obtain plasma within 15 minutes of sample collection. The levels of Compound A were quantitated in dog plasma by LC-MS/MS analysis. […] Typically, samples were injected onto an LC-MS/MS system using a Waters BEH Phenyl column. The aqueous mobile phase was water with 0.1% NH4OH (A), and the organic mobile phase was acetonitrile with 0.1% NH4OH (B). The gradient was as follows: 37% B for the first 0.2 min, increased to 44% B from 0.2 to 0.6 min, maintained at 44% B for 0.5 min, and decreased to 37% B within 0.05 min. The injection volume was 2 uL, and the total run time was 1.5 min with a flow rate of 0.6 mL/min. […] The ionization was conducted in the positive ion mode using the MRM transition [M+H]+m/z 563.5 parent ion to m/z 326.3 daughter ion, incorporating a turbo-ionspray interface. Eight to ten calibration standards were prepared in blank plasma of the relevant species providing a typical standard curve concentration range of 5-500 ng/mL. Pharmacokinetic parameters were calculated by noncompartmental methods using WinNonlin (version 5.3; Pharsight, St. Louis, Mo.). Parameters are presented as mean±S.D.

[3] = Plasma protein binding by equilibrium dialysis, mouse; type: in vitro ADME, CD-1 mouse; conditions: male, CD-1, pH 7.4, read-out: Plasma free fraction
Method: as §1

[4] = tested on: MLL-rearranged leukemia xenograft; conditions: cited from earlier work
[5] = Plasma protein binding by equilibrium dialysis, rat; type: in vitro ADME; conditions: male, Sprague-Dawley, pH 7.4, read-out: Plasma free fraction
Method: as §1

[6] = Liver microsomes supplemented with UDPGA and alamethacin (glucuronidation); type: in vitro ADME
[7] = Liver microsome stability, mouse; type: in vitro ADME
Method: (§2) The final incubation volume was 50 μL. Control incubations were included for each species where 0.1 M phosphate buffer pH 7.4 was added instead of NADPH (minus NADPH). Two control compounds were included for each species. […] The control (minus NADPH) was incubated for 45 minutes only. The reactions were stopped by transferring 25 μL of incubate to 50 μL methanol at the appropriate time points. The incubation plates were centrifuged at 2,500 rpm for 20 minutes at 4° C. to aid protein precipitation. Experimental half-lives were transformed to the corresponding intrinsic clearance values and subsequently scaled to predicted in vivo clearance values, using the well-stirred model as previously described (Houston, Biochemical Pharmacology 47(9): 1469-1479, 1994; Obach, Drug Metabolism and Disposition 27(11): 1350-1359, 1999), with appropriate species-specific scaling factors (Barter et al., Current Drug Metabolism 8(1): 33-45, 2007).

[8] = Liver microsome stability, human; type: in vitro ADME
Method: as §2

[9] = Metabolite profiling in liver microsomes with NADPH and UDPGA, rat; type: in vitro ADME; conditions: Compound A 10 μM, 20 min
Method: Compound A was incubated with liver microsomes of various species (mouse, rat, dog or human). […] For all liver microsomal incubations, samples were taken at 0 and 20 minutes. All samples were quenched by using acetonitrile/methanol solution and analyzed using an LC-MS/MS Q-Trap system (AB Sciex, Framingham, Mass.).
The corresponding product ion tandem mass spectra of Compound A and its metabolites were obtained by using enhanced product ion (EPI) scans during positive ion electrospray. The possible chemical structures of the metabolites were deduced based on their MS1 and MS2 spectra.

[10] = Hepatocyte stability, human; type: in vitro ADME
Method: Human, Beagle dog, Sprague-Dawley rat, and CD-1 mouse cryopreserved hepatocytes were obtained from XenoTech and stored at −150° C. until use. The hepatocytes were thawed and prepared according to the vendor's instructions, pooled into Krebs Henseleit buffer (KHB, pH 7.4), and kept on ice prior to initiating an experiment. […] The reaction mixture was incubated in a shaking water bath at 37° C. Aliquots of the incubation solutions were sampled at 0, 15, 30, 60, and 120 minutes. The reaction was immediately terminated by the addition of three volumes of ice-cold acetonitrile containing 0.1% formic acid and internal standards. After centrifugation at 1640×g for 10 minutes, the supernatants were transferred into HPLC vials, and the test compound was analyzed by LC-MS/MS. Positive controls, testosterone (20 μM) and 7-hydroxycoumarin (100 μM), were performed in parallel to confirm the enzyme activities of the hepatocytes used.
Experimental half-lives were transformed to the corresponding intrinsic clearance values and subsequently scaled to predicted in vivo clearance values, using the well-stirred model as previously described (Houston, Biochemical Pharmacology 47(9): 1469-1479, 1994; Obach, Drug Metabolism and Disposition 27(11): 1350-1359, 1999), with appropriate species-specific scaling factors (Barter et al., Current Drug Metabolism 8(1): 33-45, 2007).

[11] = male, plasma, Beagle dog, IV bolus
[12] = liver microsomes, pH 7.4, NADPH, 3 μM

SMILES: CC(C)N(C[C@H]1O[C@@H](n2cnc3c(N)ncnc32)[C@H](O)[C@@H]1O)[C@H]1C[C@@H](CCc2nc3cc(C(C)(C)C)ccc3[nH]2)C1 [Compound A, (2R,3R,4S,5R)-2-(6-amino-9H-purin-9-yl)-5-((((1r,3S)-3-(2-(5-(tert-butyl)-1H-benzo[d]imidazol-2-yl)ethyl)cyclobutyl)(isopropyl)amino)methyl)tetrahydrofuran-3,4-diol]
- fraction unbound at 5 μM [1]: 0.234
- CL ([2]; Beagle dog, IV bolus): 18.7 ± 1.7 mL/min/kg
- clearance ([2]; male, beagle, dog, plasma, iv, Beagle dog, IV bolus): 19 mL/min/kg
- Vd ([2]; male, beagle, dog, plasma, iv, Beagle dog, IV bolus, read-out: VDss): 2.44 L/kg
- Vd ([2]; male, beagle, dog, plasma, iv, dog, read-out: Unbound VDss): 10.4 L/kg
- AUC(0-inf) [2, 11]: 1.6 ± 0.15 µM·h
- AUC(0-t) [2, 11]: 1.55 ± 0.16 µM·h
- Cmax [2, 11]: 5.06 ± 0.6 µM
- MRT [2, 11]: 2.17 ± 0.89 h
- Tmax [2, 11]: 4.98 min
- half-life [2, 11]: 13.6 h
- fraction unbound at 5 μM [3]: 0.138
- tumor response ([4]; continuous intravenous (IV) infusion, rat xenograft): complete tumor regressions
- weight loss or signs of toxicity ([4]; rat, in vivo, iv): no significant weight loss or signs of toxicity
- fraction unbound at 5 μM [5]: 0.272
- turnover (glucuronidation) [6]: no turnover was observed
- microsomal CLint at 3 μM [7, 12]: 150 µL/min/mg
- Scaled Hepatic CL from liver microsomes ([7]; well-stirred model): 78 mL/min/kg
- microsomal CLint at 3 μM [8, 12]: 88 µL/min/mg
- Scaled Hepatic CL from liver microsomes ([8]; well-stirred model): 17 mL/min/kg
- Abundance based on UV spectra [9]: 59.4%
- Scaled Hepatic CL from hepatocytes [10]: <3 mL/min/kg
